Laboratory results reported in patent publication US8795977B2, “Method for screening a potential modulator compound of a taste receptor” (Conopco, Inc., priority 2009, dated 2014).

Target: T1, T1R1/T1R3 umami receptor (Homo sapiens, UniProt Q7RTX0+Q7RTX1, C757R)
T1 construct: expressed in transfected cells; host or cells: HEK293 cells stably expressing Gα15, transiently transfected
T1 sequence (Q7RTX1 21-841): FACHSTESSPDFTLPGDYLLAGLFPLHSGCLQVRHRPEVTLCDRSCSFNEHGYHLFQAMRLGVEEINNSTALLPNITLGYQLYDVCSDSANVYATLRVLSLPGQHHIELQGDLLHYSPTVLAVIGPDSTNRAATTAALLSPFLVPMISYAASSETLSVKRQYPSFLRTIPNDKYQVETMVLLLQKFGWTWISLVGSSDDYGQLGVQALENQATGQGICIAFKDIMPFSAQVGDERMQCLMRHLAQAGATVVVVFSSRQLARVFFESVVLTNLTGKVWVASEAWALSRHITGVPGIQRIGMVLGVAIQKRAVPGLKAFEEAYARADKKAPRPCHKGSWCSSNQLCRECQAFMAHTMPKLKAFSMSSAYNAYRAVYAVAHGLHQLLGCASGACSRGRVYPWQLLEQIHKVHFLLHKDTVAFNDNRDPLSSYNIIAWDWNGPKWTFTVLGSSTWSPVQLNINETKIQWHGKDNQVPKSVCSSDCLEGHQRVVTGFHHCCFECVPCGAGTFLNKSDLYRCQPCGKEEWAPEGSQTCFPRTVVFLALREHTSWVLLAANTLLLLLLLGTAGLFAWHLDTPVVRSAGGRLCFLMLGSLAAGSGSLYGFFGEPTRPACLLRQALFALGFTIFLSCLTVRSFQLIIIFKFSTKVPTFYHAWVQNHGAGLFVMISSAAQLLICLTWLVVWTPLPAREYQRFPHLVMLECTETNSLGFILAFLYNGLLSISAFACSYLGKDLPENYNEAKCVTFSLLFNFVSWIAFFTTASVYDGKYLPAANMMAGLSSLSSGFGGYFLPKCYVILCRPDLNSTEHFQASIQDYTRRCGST
T1 sequence (Q7RTX0 21-852 C757R): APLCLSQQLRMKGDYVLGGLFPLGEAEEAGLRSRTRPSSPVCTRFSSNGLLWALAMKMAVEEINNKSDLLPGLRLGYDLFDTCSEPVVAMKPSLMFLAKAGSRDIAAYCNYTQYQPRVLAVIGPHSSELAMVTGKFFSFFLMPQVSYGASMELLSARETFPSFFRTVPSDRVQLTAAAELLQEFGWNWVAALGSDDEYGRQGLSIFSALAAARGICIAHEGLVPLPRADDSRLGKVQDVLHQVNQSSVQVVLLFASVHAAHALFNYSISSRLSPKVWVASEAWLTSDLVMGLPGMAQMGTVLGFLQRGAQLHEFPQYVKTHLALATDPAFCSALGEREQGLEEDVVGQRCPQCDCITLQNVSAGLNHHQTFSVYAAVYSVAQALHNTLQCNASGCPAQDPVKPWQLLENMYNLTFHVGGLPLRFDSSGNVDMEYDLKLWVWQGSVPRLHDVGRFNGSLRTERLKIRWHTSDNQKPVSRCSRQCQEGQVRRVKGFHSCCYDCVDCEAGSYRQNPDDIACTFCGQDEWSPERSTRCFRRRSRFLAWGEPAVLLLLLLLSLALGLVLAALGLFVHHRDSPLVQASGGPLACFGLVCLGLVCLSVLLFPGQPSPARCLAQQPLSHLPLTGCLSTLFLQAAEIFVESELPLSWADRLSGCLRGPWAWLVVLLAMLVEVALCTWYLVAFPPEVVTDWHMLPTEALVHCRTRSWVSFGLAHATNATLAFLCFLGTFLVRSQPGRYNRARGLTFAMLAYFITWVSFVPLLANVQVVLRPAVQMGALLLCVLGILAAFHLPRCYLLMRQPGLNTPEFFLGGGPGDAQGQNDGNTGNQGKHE
Assay: Calcium-based receptor assay (release of intracellular calcium, Fluo-4-AM)
Assay type: cell-based
Set-up: key to T1R1/T1R3 receptor-specific signal, Calcium assay: +: For the calcium assay, cells expressing the umami receptor and Gα15 are compared with cells expressing Gα15 only; the difference between these signals is defined as umami receptor-specific signal; −: it was not possible to achieve umami receptor-specific signals using representative extracts and other complex mixtures using the calcium-based receptor assay
Settings: for release of intracellular calcium, T1R1/T1R3 umami receptor, average / release of intracellular calcium, T1R1/T1R3 umami receptor, meas. 1 / release of intracellular calcium, T1R1/T1R3 umami receptor, meas. 2: change in fluorescence (ΔF)
Experimental: FIG. 1 Activation of the T1R1/T1R3 umami receptor expressed in HEK293-Gα15 cells as measured by monitoring the release of intracellular calcium using the calcium fluorescent marker Fluo-4-AM as described in Example 2. Activity of the umami receptor was measured as the change in fluorescence which was calculated by subtracting the […]. Test solutions comprise extracts as indicated and prepared as described in Example 2. […]
We developed a unique functional umami receptor assay to evaluate and quantify umami in tomato and other crude plant or food extracts using the BRET technique: to test the principle we used the donor and acceptor proteins relating to BRET-2. In short, the human T1R1 and T1R3 taste receptors were cloned and fused with Renilla luciferase (Rluc) as donor protein; green fluorescent protein-2 (GFP2) served as acceptor protein and was fused to β-arrestin-2. Both constructs were transfected into a HEK293 cell line cells) for heterologous expression of the proteins. Various mammalian cell lines have been reported to be highly suitable for expression of receptors or other proteins, with HEK293 (human embryonic kidney) cells and CHO (Chinese hamster ovary) cells being some of the most versatile and suitable ones^12. Similarly, GPCRs can be expressed in various ways as described in multiple publications, such as transient^6, 8, 13-15 or stable (constitutive or inducible)^6, 9, 16, 17 expression, depending on the nature of the experiment, the respective receptor or the available time. Upon receptor stimulation with an agonist or crude extracts, the β-arrestin-2/GFP-2 protein interacts with the activated receptor thus bringing GFP-2 in close proximity with luciferase, making energy transfer between these two proteins possible and generating a BRET signal. In the presence of oxygen the luciferase catalyses the transformation of the substrate DeepBlueC into coelenteramide, which can be measured at 395-410 nm. If GFP-2 is in close proximity to the luciferase and energy transfer takes place, the emission will shift to 510 nm; this is referred to as the BRET signal and is expressed as ratio between the acceptor (GFP-2) and the donor (Renilla luciferase). The following experiments are designed to illustrate that conventional calcium-based functional receptor assays are not suitable for measuring the effects of crude extracts; in contrast, the BRET assay (as indicated here with umami) can clearly measure specific receptor responses using crude natural extracts. Moreover, the assay is also sensitive enough for detecting differences of receptor activation between the different tomato samples. Materials & Methods: Chemicals and Media: Fluo-4 AM was from Molecular Probes (# F-14202, prepared as 5 mM stock in DMSO), DMEM (with 4.5 g/l glucose and ultraglutamine, # BE12-604F) was from Lonza, trypsin-EDTA, Lipofectamine 2000, OptiMem and FCS were obtained from Life Technologies Invitrogen. Monosodium glutamate (MSG), Inosine 5′-monophosphate as well as all other chemicals were from Sigma-Aldrich. The plasmid encoding GFP2-β-arrestin-2 was purchased from BioSignal Packard (#6310176). Coelenterazine 400A (a DeepBlueC derivative) and Coelenterazine-H were from VWR International (# BTIU10125-1 and 233903-50, respectively). All other cell culture supplies were from Greiner BioOne. Receptor Fusion Constructs, Cell Lines, and Media: The human T1R1 and human T1R3 umami receptors were fused at their C-terminal in frame to Renilla Luciferase (Rluc) using standard molecular cloning techniques and the codon-humanized pRluc-N3 vector from PerkinElmer (#6310220). For expression of the umami receptors and the construct encoding GFP-2/β-arrestin-2, HEK293 cells (human embryonic kidney cells, ATCC) were used using traditional transfection methods (see also below). HEK293 cells were maintained in DMEM and 10% FBS at 37° C./5% CO2. […]

N[C@@H](CCC(=O)O)C(=O)[O-].[Na+] [MSG, Monosodium glutamate]
release of intracellular calcium, T1R1/T1R3 umami receptor, average (100 μM MSG): 1170 | release of intracellular calcium, T1R1/T1R3 umami receptor, meas. 1 (100 μM MSG): 1146 | release of intracellular calcium, T1R1/T1R3 umami receptor, meas. 2 (100 μM MSG): 1193 | release of intracellular calcium, T1R1/T1R3 umami receptor, average (1 mM MSG): 3269 | release of intracellular calcium, T1R1/T1R3 umami receptor, meas. 1 (1 mM MSG): 2548 | release of intracellular calcium, T1R1/T1R3 umami receptor, meas. 2 (1 mM MSG): 3990 | release of intracellular calcium, T1R1/T1R3 umami receptor, average (10 mM MSG): 6749 | release of intracellular calcium, T1R1/T1R3 umami receptor, meas. 1 (10 mM MSG): 5766 | release of intracellular calcium, T1R1/T1R3 umami receptor, meas. 2 (10 mM MSG): 7732 | T1R1/T1R3 receptor-specific signal, Calcium assay (MSG 10 mM): + | umami receptor-specific response in the calcium-based receptor assay (in words) (receptor-expressing versus control cells): umami receptor-specific responses
